Consider two compounds from patent US20200399262A1, “COMPOUNDS FOR INHIBITING PROTEIN DEGRADATION AND METHODS OF USE THEREOF IN THE TREATMENT OF CANCER” (PI Therapeutics Ltd, priority 2018, published 2020).

Data set [1] concerns PBMCs from healthy donors. Kind of data set: In-vitro safety in PBMCs from healthy donors (ATPlite viability). It is filed as cell-based. The conditions noted are these: for therapeutic window, EC50 (PBMC)/EC50 (MM1.S) ratio: 5 healthy donor PBMC samples, viability 48 h later; for therapeutic window, EC50 (PBMC)/EC50 (MM1.S) ratio / cytotoxicity to PBMCs from healthy donors: 6 h treatment; for sensitivity of MM1.S cells versus PBMCs from healthy donors: 6 hr exposure, viability following 48 h of incubation; for cytotoxicity to PBMCs from healthy donors: viability 48 h later (ATPlight assay). On the procedure:
FIG. 5 depicts the in-vitro safety of Compound B1 and Compound AA in Peripheral Blood Mononuclear Cells (PBMCs) from healthy donors respectively. MM1.S cells and normal PBMCs from healthy donors were treated with various concentrations of indicated compounds for 6 h and then analyzed 48 h later for cell viability (ATPlight assay). […] Calculated therapeutic windows: […], generated from 5 healthy donor PBMC samples, based on mean viability data.
PBMCs from healthy donors were exposed to Compound B1 and Compound AA for 6 hr and analyzed for viability by ATPight following 48 h of incubation. Results are representative of PBMCs from 5 healthy volunteers (FIG. 5). EC50 (PBMC)/EC50 (MM1.S) ratio, generated from 5 healthy donor PBMC samples, is shown for Compound B1, Compound AA and other UPS inhibitors [ixazomib, Bortezomib (BTZ) and CB5083].
On the technique in general: Cellular ATP, detected with luciferase, serves as a proxy for viable cell number.

For data set [2], the system named is poly-ubiquitinated proteins. Kind of data set: Western blot of poly-ubiquitinated proteins in MM1.S cells. Type of data set: cell-based. Particulars: SDS-PAGE immunoblot. On the procedure:
MM1.S cells were treated with Compound B1 (FIG. 1A), Compound AA (FIG. 1B) and Compound E1 (FIG. 1C) for indicated periods of time. Following treatment, the cells were harvested, and the lysates resolved on SDS-PAGE. Transferred membranes were blotted with antibodies as indicated. Actin was used as loading control.
Protein analysis by Western blot. At the end of treatment period, the cells were lysed with M-PER mammalian protein extraction reagent (ThermoFisher Scientific) supplemented with protease inhibitors. Equal protein amounts were resolved on pre-cast SDS-PAGE (ThermoFisher Scientific) and transferred to a PVDF membrane. The membrane was immunoblotted with antibodies as indicated. The following antibodies were used: Ub MAb (SC-8017, Santa-Cruz), ATF4, ATF6, phospho JNK, JNK (Cell signaling); eIF2alpha, phospho eIF2alpha (Novus).
(A western blot detects proteins with antibodies after separation by electrophoresis.)

Another data set concerns MM1.S xenograft. Kind of data set: MM1.S subcutaneous flank xenograft in athymic nude mice. Particulars: for MM tumor growth compared to vehicle control / body weight % changes: TIW for 21 days; for Blood chemistry profiles (liver or kidney toxicity): TIW, treated mice. Type of data set: in vivo. The source says: FIG. 4A-4D depicts the growth inhibition of MM1.S xenograft in nude mice by Compound B1 (FIG. 4A, FIG. 4B) and Compound AA (FIG. 4C, FIG. 4D). FIG. 4A and FIG. 4C show tumor growth inhibition observed at end point measurements by Compound B1 and AA respectively. […] MM.1S cells (5×10^6 cells/mouse) were implanted in the rear flank of mail mice (6 weeks of age at the time of tumor implantation). On Day 20-23, mice were randomized for equivalent distribution of tumor volumes to treatment groups (n=5/group) and treated IV with vehicle, compound B1 (FIG. 4A) and compound AA (FIG. 4C), three time a week (TIW) for 21 days. Data are presented as mean tumor volume±SD. Body weight % changes in treated animals observed during the course of the study for compound B1 (FIG. 4B) and Compound AA (FIG. 4D).
Animal xenograft models. MM1.S, HCT-116, SW620 cell lines were purchased from ATCC and used for xenograft model. The cells were cultured in RPMI medium (Sigma-Aldrich) supplemented with 10% fetal bovine serum (FBS) and divided for up to 5 passages. Shortly prior to injection, cell suspension was mixed with Matrigel at 1:1 (V/V) and injected subcutaneously to the rear flank area of male nude athymic 6 weeks old mice to obtain administration of 5×10^6 cells/animal. On day 20-23, when tumor volume reached 100-150 mm^3, mice were randomized for equivalent distribution of tumor volumes to treatment groups (n=5/group) and treated via intravenous injection.

The next data set has as its system proteasome. Kind of data set: Proteasome activity (Proteasome-GLO) in intact MM1.S cells. Type of data set: cell-based. Particulars: 3 hr at 37° C. On the procedure: Proteasome activity was measured in intact MM1.S cells as cleavage of peptide substrates, specific for Trypsin like (TL), Chemotrypsin like (CTL) and Caspase like (PL) activities of the proteasome following treatment with Compound B1, Compound AA or Bortezomib (BTZ) at ˜EC50 concentrations for 3 hr at 37° C. BTZ was used as positive control.
Proteasome activity. The assay was performed only when cell viability is ≥90%. Cells were seeded in 96-well white clear bottom plates and treated with diluted compounds or vehicle control in triplicates for 3 hours at various concentrations. Catalytic activity was measured using three luminogenic proteasome substrates: Suc-LLVY-aminoluciferin (Succinyl-leucine-leucine-valine-tyrosine-aminoluciferin), Z-LRR-aminoluciferin (Z-leucine-arginine-arginine-aminoluciferin) and Z-nLPnLD-aminoluciferin (Z-norleucine-proline-norleucine-aspartate-aminoluciferin) for the chymotrypsin-like, trypsin-like and caspase-like activities, respectively (Proteasome-GLO, Promega). The emitted light was proportional to the proteasomal activity. Catalytic activity was calculated as the percent activity from control vehicle-treated cells.
MM1.S cells, were treated with Compound B1, Compound AA or Bortezomib (BTZ) at various concentrations for 3 hr at 37° C. […] Proteasome activity was measured by cleavage of proteasome-specific peptide substrates for TL, CTL and PL activities.

Another data set deals with HT-29. Kind of data set: NCI60 screen cytotoxicity. It is filed as cell-based. The conditions noted are these: Homo sapiens, Colon cancer, read-out: Compound B1 EC50.
The next data set relates to KM-12. Nature of the data set: NCI60 screen cytotoxicity. Type of data set: cell-based. Particulars: Homo sapiens, KM12, Colon cancer, read-out: Compound B1 EC50.
Another data set has as its system NCI-H23. Kind of data set: NCI60 screen cytotoxicity. The conditions noted are these: Homo sapiens, Lung cancer, read-out: Compound B1 EC50. Type of data set: cell-based.
Another data set has as its system COLO-205. Kind of data set: NCI60 screen cytotoxicity. Type of data set: cell-based. Particulars: Homo sapiens, Colon cancer, read-out: Compound B1 EC50.
The next data set has as its system OVCAR-8. Nature of the data set: NCI60 screen cytotoxicity. It is filed as cell-based. The conditions noted are these: Homo sapiens, Ovarian cancer, read-out: Compound B1 EC50.
Another data set deals with HCT-116. Kind of data set: NCI60 screen cytotoxicity. It is filed as cell-based. Particulars: Homo sapiens, Colon cancer, read-out: Compound B1 EC50.
The test system of the next data set is UO-31. Kind of data set: NCI60 screen cytotoxicity. Type of data set: cell-based. Particulars: Homo sapiens, Renal cancer, read-out: Compound B1 EC50.
The subject of the next data set is SK-MEL-2. Kind of data set: NCI60 screen cytotoxicity. It is filed as cell-based. The conditions noted are these: Homo sapiens, Melanoma, read-out: Compound B1 EC50.

Broadly, the EC50 is the midpoint of the concentration-response curve.

Some results are limits rather than exact numbers.

With `CN(C)CCCS(=O)(=O)N1C/C(=C\c2ccc(C#N)cc2)C(=O)/C(=C/c2ccc(C#N)cc2)C1` [Compound AA], in [1], the “therapeutic window, EC50 (PBMC)/EC50 (MM1.S) ratio” value is recorded as “larger Tx window than competing UPS inhibitors”; the “sensitivity of MM1.S cells versus PBMCs from healthy donors” value is “more sensitive”; the “cytotoxicity to PBMCs from healthy donors” value is “less cytotoxic to PBMCs from healthy donors than Ixazomib, Bortezomib (BTZ) and CB5083”. The “accumulation of poly-ubiquitinated proteins” value in data set [2] is given as “observable accumulation of poly-ubiquitinated proteins”. Besides, in the data set with MM1.S xenograft (4 mg/kg IV), the “MM tumor growth compared to vehicle control” value is reported as “significantly inhibited MM tumor growth”, the “body weight % changes” value is on record as “No significant weight loss” and the “Blood chemistry profiles (liver or kidney toxicity)” value is reported as “no clinical abnormalities suggestive of liver or kidney toxicity”. In the data set with proteasome, the “inhibition of the enzymatic functions of the proteasome (TL, CTL and PL activities)” value is recorded as “does not Inhibit”.
Regarding `CN(C)CC(=O)NCC(=O)N1C/C(=C\c2ccc(C#N)cc2)C(=O)/C(=C/c2ccc(C#N)cc2)C1` [Compound B1], the EC50 with HT-29 was 300 to 1000 nM; in the data set with KM-12, less than 300 nM; in the data set on NCI-H23, less than 300 nM; in the data set with COLO-205, 300 to 1000 nM; in the data set on OVCAR-8 it was less than 300 nM; in the data set on HCT-116 it was less than 300 nM. Further, the figures for the EC50 with UO-31 and in the data set with SK-MEL-2 were 300 to 1000 nM and less than 300 nM, respectively. Moreover, the “therapeutic window, EC50 (PBMC)/EC50 (MM1.S) ratio” value in [1] is recorded as “larger Tx window than competing UPS inhibitors”. Moreover, the “sensitivity of MM1.S cells versus PBMCs from healthy donors” value in [1] is on record as “more sensitive”. Moreover, in data set [1], the “cytotoxicity to PBMCs from healthy donors” value was “less cytotoxic to PBMCs from healthy donors than Ixazomib, Bortezomib (BTZ) and CB5083”. In addition, the “accumulation of poly-ubiquitinated proteins” value in data set [2] is reported as “observable accumulation of poly-ubiquitinated proteins”. The “MM tumor growth compared to vehicle control” value with MM1.S xenograft (5 mg/kg IV) is on record as “significantly inhibited MM tumor growth”. Besides, the “body weight % changes” value in the data set on MM1.S xenograft (5 mg/kg IV) was “No significant weight loss”. The “Blood chemistry profiles (liver or kidney toxicity)” value with MM1.S xenograft (5 mg/kg IV) is listed as “no clinical abnormalities suggestive of liver or kidney toxicity”. The “inhibition of the enzymatic functions of the proteasome (TL, CTL and PL activities)” value in the data set with proteasome was “does not Inhibit”.
